Measurements reported in US20070049564A1 (Wyeth, priority 2005, published 2007).
Converted amounts (≈) assume the structure as drawn. Read-outs that look alike come from different tables or passages of the source.

Columns and labels:
E. coli GC 2236 = experiment: MIC, broth microdilution; conditions: Escherichia coli
E. coli GC 2235 = experiment: MIC, broth microdilution; conditions: Escherichia coli
E. coli GC 2233 = experiment: MIC, broth microdilution; conditions: Escherichia coli
E. coli GC 2270 = experiment: MIC, broth microdilution; conditions: Escherichia coli
E. coli GC 2271 = experiment: MIC, broth microdilution; conditions: Escherichia coli
E. coli GC 4559 = experiment: MIC, broth microdilution; conditions: Escherichia coli
E. coli GC 4560 = experiment: MIC, broth microdilution; conditions: Escherichia coli
E. coli GC 6465 = experiment: MIC, broth microdilution; conditions: Escherichia coli
E. coli GC 2203 = experiment: MIC, broth microdilution; conditions: Escherichia coli
E. coli GC 1073 = experiment: MIC, broth microdilution; conditions: Escherichia coli
P. aeruginosa GC 2214 = experiment: MIC, broth microdilution; conditions: Pseudomonas aeruginosa
S. aureus GC 6467 = experiment: MIC, broth microdilution; conditions: Staphylococcus aureus
S. aureus GC 4536 = experiment: MIC, broth microdilution; conditions: Staphylococcus aureus
S. aureus GC 6469 = experiment: MIC, broth microdilution; conditions: Staphylococcus aureus
E. faecalis GC 4555 = experiment: MIC, broth microdilution; conditions: Enterococcus faecalis
E. faecalis GC 2265 = experiment: MIC, broth microdilution; conditions: Enterococcus faecalis
Experimental: (§1) Antimicrobial susceptibility testing. The in vitro activities of the antibiotics are determined by the broth microdilution method as recommended by the National Committee for Clinical Laboratory Standards (NCCLS) (1). Mueller-Hinton II broth (MHBII)(BBL Cockeysville, Md.) is the medium employed in the testing procedures. Microtiter plates containing serial dilutions of each antimicrobial agent are inoculated with each organism to yield the appropriate density (10^5 CFU/ml) in a 100 μl final volume. The plates are incubated for 18-22 hours at 35° C. in ambient air.
Representative compounds were first incubated in mouse serum for an hour prior to the in vitro testing against a panel of selected gram-positive and gram-negative bacteria strains. All compounds were also pre-incubated in water for an hour prior to testing as control.

E. faecalis GC 2242 = experiment: MIC, broth microdilution; conditions: Enterococcus faecalis
S. agalactiae GC 4564 = experiment: MIC, broth microdilution; conditions: Streptococcus agalactiae
E. coli = experiment: Range of MIC for E. coli strains; conditions: Escherichia coli
Experimental: as §1
Representative compounds were first incubated in mouse serum for an hour prior to the in vitro testing against a panel of selected gram-positive and gram-negative bacteria strains. All compounds were also pre-incubated in water for an hour prior to testing as control. Representative compounds of Formula I were incubated in human serum prior to MIC determination.

Staph. = experiment: Range of MIC for Staph. strains, including MRSA; conditions: Staphylococcus aureus, MRSA

`CCCN(CC(=O)Nc1cc(N(C)C)c2c(c1O)C(=O)C1=C(O)[C@]3(O)C(=O)C(C(N)=O)=C(O)[C@@H](N(C)C)[C@@H]3C[C@@H]1C2)C(=O)OCOC(=O)c1cccs1` [Example 25, ({[(2-{[(5aR,6aS,7S,10aS)-9-(aminocarbonyl)-4,7-bis(dimethylamino)-1,8,10a,11-tetrahydroxy-10,12-dioxo-5,5a,6,6a,7,10,10a,12-octahydrotetracen-2-yl]amino}-2-oxoethyl)(propyl)amino]carbonyl}oxy)methyl thiophene-2-carboxylate] showed an MIC (E. coli GC 2236; GC2236, read-out: MINIMAL INHIBITORY CONCENTRATION MIC, pre-incubated in Mouse Serum) of 2 µg/mL (≈ 2.65 µM), an MIC (E. coli GC 2236; GC2236, read-out: MINIMAL INHIBITORY CONCENTRATION MIC, pre-incubated in Water) of 64 µg/mL (≈ 84.7 µM) and an MIC (E. coli GC 2235; GC2235, read-out: MINIMAL INHIBITORY CONCENTRATION MIC, pre-incubated in Mouse Serum) of 1 µg/mL (≈ 1.32 µM). For the same compound, the MIC (E. coli GC 2235; GC2235, read-out: MINIMAL INHIBITORY CONCENTRATION MIC, pre-incubated in Water) was 32 µg/mL (≈ 42.3 µM), the MIC (E. coli GC 2233; GC2233, read-out: MINIMAL INHIBITORY CONCENTRATION MIC, pre-incubated in Mouse Serum) was 2 µg/mL (≈ 2.65 µM) and the MIC (E. coli GC 2233; GC2233, read-out: MINIMAL INHIBITORY CONCENTRATION MIC, pre-incubated in Water) was 32 µg/mL (≈ 42.3 µM). The MIC (E. coli GC 2270; GC2270, read-out: MINIMAL INHIBITORY CONCENTRATION MIC, pre-incubated in Mouse Serum) was 1 µg/mL (≈ 1.32 µM), the MIC (E. coli GC 2270; GC2270, read-out: MINIMAL INHIBITORY CONCENTRATION MIC, pre-incubated in Water) was > 64 µg/mL and the MIC (E. coli GC 2271; GC2271, read-out: MINIMAL INHIBITORY CONCENTRATION MIC, pre-incubated in Mouse Serum) was 1 µg/mL (≈ 1.32 µM). For the same compound, the MIC (E. coli GC 2271; GC2271, read-out: MINIMAL INHIBITORY CONCENTRATION MIC, pre-incubated in Water) was 32 µg/mL (≈ 42.3 µM), the MIC (E. coli GC 4559; GC4559, read-out: MINIMAL INHIBITORY CONCENTRATION MIC, pre-incubated in Mouse Serum) was 2 µg/mL (≈ 2.65 µM) and the MIC (E. coli GC 4559; GC4559, read-out: MINIMAL INHIBITORY CONCENTRATION MIC, pre-incubated in Water) was > 64 µg/mL. The MIC (E. coli GC 4560; GC4560, read-out: MINIMAL INHIBITORY CONCENTRATION MIC, pre-incubated in Mouse Serum) was 0.5 µg/mL (≈ 0.662 µM), the MIC (E. coli GC 4560; GC4560, read-out: MINIMAL INHIBITORY CONCENTRATION MIC, pre-incubated in Water) was 2 µg/mL (≈ 2.65 µM) and the MIC (E. coli GC 6465; GC6465, read-out: MINIMAL INHIBITORY CONCENTRATION MIC, pre-incubated in Mouse Serum) was 8 µg/mL (≈ 10.6 µM). For the same compound, the MIC (E. coli GC 6465; GC6465, read-out: MINIMAL INHIBITORY CONCENTRATION MIC, pre-incubated in Water) was > 64 µg/mL, the MIC (E. coli GC 2203; GC2203, read-out: MINIMAL INHIBITORY CONCENTRATION MIC, pre-incubated in Mouse Serum) was 1 µg/mL (≈ 1.32 µM) and the MIC (E. coli GC 2203; GC2203, read-out: MINIMAL INHIBITORY CONCENTRATION MIC, pre-incubated in Water) was > 64 µg/mL. The MIC (E. coli GC 1073; GC1073, read-out: MINIMAL INHIBITORY CONCENTRATION MIC, pre-incubated in Mouse Serum) was 2 µg/mL (≈ 2.65 µM), the MIC (E. coli GC 1073; GC1073, read-out: MINIMAL INHIBITORY CONCENTRATION MIC, pre-incubated in Water) was > 64 µg/mL and the MIC (P. aeruginosa GC 2214; GC2214, read-out: MINIMAL INHIBITORY CONCENTRATION MIC, pre-incubated in Mouse Serum) was 32 µg/mL (≈ 42.3 µM). For the same compound, the MIC (P. aeruginosa GC 2214; GC2214, read-out: MINIMAL INHIBITORY CONCENTRATION MIC, pre-incubated in Water) was > 64 µg/mL, the MIC (S. aureus GC 6467; GC6467, read-out: MINIMAL INHIBITORY CONCENTRATION MIC, pre-incubated in Mouse Serum) was 2 µg/mL (≈ 2.65 µM) and the MIC (S. aureus GC 6467; GC6467, read-out: MINIMAL INHIBITORY CONCENTRATION MIC, pre-incubated in Water) was 2 µg/mL (≈ 2.65 µM). It also gave an MIC (S. aureus GC 4536; GC4536, read-out: MINIMAL INHIBITORY CONCENTRATION MIC, pre-incubated in Mouse Serum) of 0.5 µg/mL (≈ 0.662 µM), an MIC (S. aureus GC 4536; GC4536, read-out: MINIMAL INHIBITORY CONCENTRATION MIC, pre-incubated in Water) of 0.5 µg/mL (≈ 0.662 µM) and an MIC (S. aureus GC 6469; GC6469, read-out: MINIMAL INHIBITORY CONCENTRATION MIC, pre-incubated in Mouse Serum) of 2 µg/mL (≈ 2.65 µM). The MIC (S. aureus GC 6469; GC6469, read-out: MINIMAL INHIBITORY CONCENTRATION MIC, pre-incubated in Water) was 4 µg/mL (≈ 5.29 µM), the MIC (E. faecalis GC 4555; GC4555, read-out: MINIMAL INHIBITORY CONCENTRATION MIC, pre-incubated in Mouse Serum) was 1 µg/mL (≈ 1.32 µM) and the MIC (E. faecalis GC 4555; GC4555, read-out: MINIMAL INHIBITORY CONCENTRATION MIC, pre-incubated in Water) was 2 µg/mL (≈ 2.65 µM). It also gave an MIC (E. faecalis GC 2265; GC2265, read-out: MINIMAL INHIBITORY CONCENTRATION MIC, pre-incubated in Mouse Serum) of 2 µg/mL (≈ 2.65 µM), an MIC (E. faecalis GC 2265; GC2265, read-out: MINIMAL INHIBITORY CONCENTRATION MIC, pre-incubated in Water) of 2 µg/mL (≈ 2.65 µM) and an MIC (E. faecalis GC 2242; GC2242, read-out: MINIMAL INHIBITORY CONCENTRATION MIC, pre-incubated in Mouse Serum) of 2 µg/mL (≈ 2.65 µM). For the same compound, the MIC (E. faecalis GC 2242; GC2242, read-out: MINIMAL INHIBITORY CONCENTRATION MIC, pre-incubated in Water) was 2 µg/mL (≈ 2.65 µM), the MIC (S. agalactiae GC 4564; GC4564, read-out: MINIMAL INHIBITORY CONCENTRATION MIC, pre-incubated in Mouse Serum) was 0.5 µg/mL (≈ 0.662 µM) and the MIC (S. agalactiae GC 4564; GC4564, read-out: MINIMAL INHIBITORY CONCENTRATION MIC, pre-incubated in Water) was 0.5 µg/mL (≈ 0.662 µM). For the same compound, the MIC (E. coli; 20 h, read-out: Range of MIC, E. coli (Mouse Serum)) was 1 to 2 µg/mL (≈ 1.32 to 2.65 µM), the MIC (E. coli; read-out: Range of MIC, E. coli (mouse serum)) was 1 to 2 µg/mL (≈ 1.32 to 2.65 µM) and the MIC (Staph.; read-out: Range of MIC, Staph (Mouse Serum)) was 0.25 to 2 µg/mL (≈ 0.331 to 2.65 µM). For the same compound, the MIC (Staph.; read-out: Range of MIC, Staph (Water)) was 0.5 to 4 µg/mL (≈ 0.662 to 5.29 µM), the MIC (Staph.; read-out: Range of MIC, Staph. (mouse serum)) was 0.25 to 2 µg/mL (≈ 0.331 to 2.65 µM) and the MIC (Staph.; read-out: Range of MIC, Staph. (water)) was 0.5 to 4 µg/mL (≈ 0.662 to 5.29 µM).
